What was measured:
[1] = system: H37Rv in J774A.1 macrophages; test: Macrophage intracellular bactericidal activity; type: cell-based, Mycobacterium tuberculosis; details: for CFU / log10 CFU: J774A.1, 72 h
Experimental: The macrophage intracellular bactericidal activity is used to evaluate the anti-tuberculosis activities of BIBF1120 alone and BIBF1120+RFP in combination. The specific operating method includes: collecting J774A.1 macrophages into a 50 ml centrifuge tube, and taking 100 μl of macrophages and 900 μl of a cell culture medium, which are added into a 1.5 ml sterile centrifuge tube for 10-fold dilution; counting under a microscope; diluting macrophages to 4*10^5/ml and gently plating the macrophages into a 48-well clear microwell plate, with 1 ml in each well; culturing in an incubator with 5% of CO2 at 37° C. for 24 h after plating; co-culturing MOI=5:1 and 2*10^6 CFU/MLH37Rv with the macrophages; rinsing 2 times with sterile PBS 4 h later to remove extracellular Mycobacterium tuberculosis, and adding a new RPMI cell culture medium; putting into an incubator with 5% of CO2 at 37° C. and culturing for 72 h. discarding RPMI in the 48-well plate 3 days later, adding 200 μl of 0.1% SDS and placing in the incubator for 5 to 10 min, and adding 800 μl of the cell culture medium into each well and mixing well; and after cell lysis, taking 100 μl from each well for 10-, 100-, 1000-, 100000-fold dilution, and inoculating 100 μl on a 7H10 solid medium, spreading it evenly with a spreader and counting CFUs three weeks later.

H37Rv strain = test: In vitro activity on Mycobacterium tuberculosis (Alamar Blue MIC); type: cell-based; details: H37Rv standard strain, 7H9 medium, 37° C. 7 d, Alamar Blue 24 h
[2] = system: pulmonary and splenic Mycobacterium tuberculosis (H37Rv strain); type: in vivo, C57BL/6 female mice; details: after 8 weeks of administration; BIBF1120 added to HRZ

Row | Structure (SMILES) | CFU ([1]; Table 1, RFP 2 ug/ml) | log10 CFU ([1]; Table 1, RFP 2 ug/ml) | CFU ([1]; Table 2, RFP 2 ug/ml) | log10 CFU ([1]; Table 2, RFP 2 ug/ml) | bacteriostatic effect administered alone ([1]; BIBF1120 alone, 25 ug/ml) | CFU ([1]; Table 1, BIBF1120 12.5 ug/ml) | log10 CFU ([1]; Table 1, BIBF1120 12.5 ug/ml) | CFU ([1]; Table 1, BIBF1120 25 ug/ml) | log10 CFU ([1]; Table 1, BIBF1120 25 ug/ml) | CFU ([1]; Table 1, BIBF1120 50 ug/ml) | log10 CFU ([1]; Table 1, BIBF1120 50 ug/ml) | CFU ([1]; Table 2, BIBF1120 25 ug/ml) | log10 CFU ([1]; Table 2, BIBF1120 25 ug/ml) | MIC (H37Rv strain) [µg/mL] | sterilizing of the spleen and the lung [2]
1 | CO[C@H]1/C=C/O[C@@]2(C)Oc3c(C)c(O)c4c(O)c(c(/C=N/N5CCN(C)CC5)c(O)c4c3C2=O)NC(=O)/C(C)=C\C=C\[C@H](C)[C@H](O)[C@@H](C)[C@@H](O)[C@@H](C)[C@H](OC(C)=O)[C@@H]1C [RFP, rifampicin] | 502500 | 5.701 | 202500 | 5.306 | – | – | – | – | – | – | – | – | – | – | –
2 | CCS(=O)(=O)O.COC(=O)c1ccc2c(c1)NC(=O)/C2=C(\Nc1ccc(N(C)C(=O)CN2CCN(C)CC2)cc1)c1ccccc1 [BIBF1120, Nintedanib] | – | – | – | – | no significant bacteriostatic effect | 2400000 | 6.380 | 1462500 | 6.165 | 1077500 | 6.032 | 2750000 | 6.439 | 24.6 | achieves sterilizing of the spleen and the lung
